# Legend:
# [1] = target: T1, 5-hydroxytryptamine receptor 1A (Rattus norvegicus, UniProt P19327); assay: Displacement of radioligand [3H]2-(di-N-propylamino)-8-hydroxytetralin from 5-hydroxytryptamine 1A receptor in rat frontal cortex homogenate; assay type: tissue-based
# T1 sequence (P19327 whole entry): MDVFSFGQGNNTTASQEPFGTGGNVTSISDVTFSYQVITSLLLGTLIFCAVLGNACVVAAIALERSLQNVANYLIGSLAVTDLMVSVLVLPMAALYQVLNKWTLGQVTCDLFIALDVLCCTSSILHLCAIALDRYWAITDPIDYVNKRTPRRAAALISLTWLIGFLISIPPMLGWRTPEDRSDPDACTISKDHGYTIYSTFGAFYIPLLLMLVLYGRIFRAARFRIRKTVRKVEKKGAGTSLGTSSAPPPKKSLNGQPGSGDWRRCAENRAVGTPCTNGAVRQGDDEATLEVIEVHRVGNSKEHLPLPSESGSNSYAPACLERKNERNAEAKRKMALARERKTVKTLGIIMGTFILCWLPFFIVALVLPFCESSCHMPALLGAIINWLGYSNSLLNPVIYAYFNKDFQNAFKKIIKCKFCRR
# [2] = Ionization at 20 degree C; assay type: ADME
# [3] = Ionization at 25 degree C; assay type: ADME
# [4] = Ionization at 30 degree C; assay type: ADME
# [5] = Ionization at 37 degree C; assay type: ADME
# [6] = Ionization at 45 degree C; assay type: ADME
# [7] = target: T1, 5-hydroxytryptamine receptor 1A; assay: Displacement of radioligand [3H]2-(di-N-propylamino)-8-hydroxytetralin from 5-hydroxytryptamine 1A receptor in rat frontal cortex homogenate (experiment 1); assay type: tissue-based
# Opioid receptor [8] = target: T2, Opioid receptor (Mus musculus, UniProt P42866+P32300+P33534); assay: Tested for displacement of radioligand [3H]-Naloxone from opiate receptor; assay type: protein assay
# Opioid receptor [9] = target: T2, Opioid receptor; assay: Tested for displacement of radioligand [3H]-Naloxone from opiate receptor; value ranges from 7-10 uM; assay type: protein assay
SMILES,Ki [1] [nM],IC50 (Opioid receptor [8]) [nM],further results
CCCCCCCCCCN1CCN(c2cccc3ccoc23)CC1,8,–,–
CCCCCN1CCN(c2cccc3c2OCCO3)CC1,2.2,–,pKa [2]: 8.41; pKa [3]: 8.27; pKa [4]: 8.21; pKa [5]: 8.06; pKa [6]: 7.91
CCCN1CCN(c2cccc3ccoc23)CC1,29,–,pKa [5]: 7.84
CC(C)N1CCN(c2cccc3ccoc23)CC1,56,–,–
CCCCCN1CCN(c2cccc3ccoc23)CC1,0.81,–,pKa [5]: > 7.7
CCN1CCN(c2cccc3c2OCCO3)CC1,–,–,pKa [2]: 8.34; pKa [5]: 8
CCCCCCCCN1CCN(c2cccc3ccoc23)CC1,1.7,–,–
CCCCCN1CCN(c2cccc(Cl)c2)CC1,–,–,Ki [7]: 7.8 nM; pKa [2]: > 7.4; pKa [3]: > 7.4; pKa [4]: > 7.5; pKa [5]: > 7.2; pKa [6]: > 7
CCCCCCN1CCN(c2cccc3c2OCCO3)CC1,0.5,–,–
CCCCCCN1CCN(c2cccc3ccoc23)CC1,0.54,–,–
CCCN1CCN(c2cccc3c2OCCO3)CC1,80,–,pKa [2]: 8.36; pKa [5]: 8.02
c1cc(N2CCN(CC3CCCCC3)CC2)c2occc2c1,7.7,–,–
CN1CCN(c2cccc3c2OCCO3)CC1,24,–,pKa [2]: 8.07; pKa [5]: 7.77
CCCCN1CCN(c2cccc3ccoc23)CC1,5.9,–,pKa [5]: 7.77
c1cc(N2CCN(C3CCCCC3)CC2)c2occc2c1,64,–,–
c1cc2c(c(N3CCN(CCC4CCCCC4)CC3)c1)OCCO2,0.25,–,–
c1cc2c(c(N3CCN(CC4CCCCC4)CC3)c1)OCCO2,11,–,–
CCCCN1CCN(c2cccc3c2OCCO3)CC1,12,–,pKa [2]: 8.41; pKa [5]: 8.06
CCCCCCCCN1CCN(c2cccc3c2OCCO3)CC1,0.61,–,–
CCOC(=O)C1(c2ccccc2)CCN(CC)CC1,–,5000,–
CN1CCN(c2cccc3ccoc23)CC1,8.1,–,pKa [5]: 7.54
CCCCCCCCCN1CCC(C(=O)OCC)(c2ccccc2)CC1,–,150,–
CCCCCCCN1CCC(C(=O)OCC)(c2ccccc2)CC1,–,55,–
CCN1CCN(c2cccc3ccoc23)CC1,23,–,pKa [5]: 7.79

SMILES,Ki [1] [nM],IC50 (Opioid receptor [8]) [nM],further results
CCCCN1CCC(C(=O)CC)(c2cccc(O)c2)CC1,–,50000,–
c1cc(N2CCN(CC3CC3)CC2)c2occc2c1,20,–,–
CCCCCCN1CCC(C(=O)CC)(c2cccc(O)c2)CC1,–,20000,–
CCCCCCCCN1CCC(C(=O)OCC)(c2ccccc2)CC1,–,30,–
c1cc(N2CCNCC2)c2occc2c1,13,–,pKa [2]: 8.84; pKa [5]: 8.44
CCCN1CCC(C(=O)OCC)(c2ccccc2)CC1,–,4000,–
CCCCCCCCCCN1CCC(C(=O)CC)(c2cccc(O)c2)CC1,–,500000,–
CCCCN1CCC(C(=O)OCC)(c2ccccc2)CC1,–,900,–
CCCCCCCCN1CCC(C(=O)CC)(c2cccc(O)c2)CC1,–,200000,–
CCCCCCCCCN1CCC(C(=O)CC)(c2cccc(O)c2)CC1,–,700000,–
CCCCCN1CCC(C(=O)OCC)(c2ccccc2)CC1,–,400,–
CCCCCCCN1CCC(C(=O)CC)(c2cccc(O)c2)CC1,–,20000,–
CCCCCCN1CCC(C(=O)OCC)(c2ccccc2)CC1,–,200,–
CCCN1CCC(C(=O)CC)(c2cccc(O)c2)CC1,–,200000,–
CCC(=O)C1(c2cccc(O)c2)CCN(CC)CC1,–,400000,–
CCCCCCCCCCN1CCN(c2cccc3c2OCCO3)CC1,1,–,–
CCCCCN1CCC(C(=O)CC)(c2cccc(O)c2)CC1,–,8000,–
CC(C)CN1CCN(c2cccc3ccoc23)CC1,64,–,–
COc1ccccc1N1CCNCC1,170,–,–
Clc1cccc(N2CCNCC2)c1 [CHLOROPHENYLPIPERAZINE],–,–,Ki [7]: 200 nM; pKa [2]: 8.72; pKa [3]: 8.6; pKa [4]: 8.46; pKa [5]: 8.36; pKa [6]: 8.12
c1cc2c(c(N3CCNCC3)c1)OCCO2 [ELTOPRAZINE],–,–,pKa [2]: 9.18; pKa [3]: 8.99; pKa [4]: 8.88; pKa [5]: 8.74; pKa [6]: 8.55
O=C1c2ccccc2S(=O)(=O)N1CCCCN1CCN(c2ncccn2)CC1 [IPSAPIRONE],5.5,–,–
CCC(=O)C1(c2cccc(O)c2)CCN(C)CC1 [KETOBEMIDONE],–,–,IC50 (Opioid receptor [9]): 7000 nM

# From ChEMBL document CHEMBL1126802, “Structure-affinity relationship studies on 5-HT1A receptor ligands. 1. Heterobicyclic phenylpiperazines with N4-alkyl substituents” (J Med Chem, 1993)
